From article PMC7116137 (Molecular pharmacology, 2020)

Legend:
[1] = molecular target: complex of dopamine D1-receptor and wild-type A1R (Homo sapiens, UniProt P21728+P30542); test: BRET between D1R-NLuc and eYFP-tagged A1-receptor in HEK293 cells; assay type: cell-based; details: incubation with ligand 10 μM, response estimated at saturation
wild-type A1R = molecular target: T1, wild-type A1R (Homo sapiens, UniProt P30542); test: [35S]GTPγS binding to membranes of HEK293 cells; assay type: biochemical; details: agonist-stimulated, curve fit; wt A1R
T1 sequence (P30542 1-326): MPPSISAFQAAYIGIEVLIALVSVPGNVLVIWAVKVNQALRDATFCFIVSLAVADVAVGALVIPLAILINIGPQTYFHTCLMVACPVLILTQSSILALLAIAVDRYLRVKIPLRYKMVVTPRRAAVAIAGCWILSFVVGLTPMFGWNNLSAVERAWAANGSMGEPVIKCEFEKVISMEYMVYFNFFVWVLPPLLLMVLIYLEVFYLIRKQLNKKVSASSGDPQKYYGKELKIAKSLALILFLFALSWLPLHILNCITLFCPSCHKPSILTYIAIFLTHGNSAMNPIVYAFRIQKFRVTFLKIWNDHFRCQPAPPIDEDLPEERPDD

complex of dopamine D1-receptor and wild-type A1R, sequence (P21728 whole entry, one chain of several): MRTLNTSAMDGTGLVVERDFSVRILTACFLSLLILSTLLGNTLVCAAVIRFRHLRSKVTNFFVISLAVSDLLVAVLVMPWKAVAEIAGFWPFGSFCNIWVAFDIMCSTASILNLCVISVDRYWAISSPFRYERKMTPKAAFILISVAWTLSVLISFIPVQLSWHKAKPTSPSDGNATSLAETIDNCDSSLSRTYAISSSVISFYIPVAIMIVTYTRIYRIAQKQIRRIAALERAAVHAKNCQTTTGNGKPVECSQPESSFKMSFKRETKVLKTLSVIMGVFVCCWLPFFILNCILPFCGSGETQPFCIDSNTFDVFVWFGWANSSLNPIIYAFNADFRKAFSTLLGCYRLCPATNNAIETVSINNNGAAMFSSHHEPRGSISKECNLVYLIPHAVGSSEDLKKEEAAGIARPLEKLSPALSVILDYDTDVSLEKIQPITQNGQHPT

Maximum BRET signal [1]: 218 ± 64 milli BRET | maximal [35S]GTPγS binding (95% confidence interval) (wild-type A1R): 91.5 to 101.3 fmol/mg
SMILES: OC[C@H]1O[C@@H](n2cnc3c(NC4CCCC4)ncnc32)[C@H](O)[C@@H]1O [CPA, N6-cyclopentyladenosine]
